In patent US12251449B2, “Synthetic multidomain peptide biomaterials that inhibit inducible nitric oxide synthase” (William Marsh Rice University, priority 2019, dated 2025):
Where “and” joins values, the source holds several entries; their conditions need not be identical. Equal entries are not always repeated. *1 amine or outer side, *2 acyl side, *3 side chain or, on linkers, in order; H or OH if unused. Where a SMILES comes first, the peptide text is derived from it. [ ]: non-standard residue; d: D form. X1 = CC(=N)NCCCC[C@H](N[*:1])C(=O)[*:2]

Legend:
[1] = Oscillatory rheology of peptide hydrogels; format: physicochemical; conditions: hydrogel at 1 wt. % in HBSS with sucrose
Procedure: Oscillatory rheology. Peptide hydrogels were analyzed for their mechanical properties by oscillatory rheology using a TA Instruments AR-G2 rheometer (TA Instruments, New Castle, DE). Samples of 150 μL of 1 wt. % MDP hydrogels were prepared 24 hours prior to use for rheology, to allow full equilibration of the material. Gel samples were then transferred from a cut syringe onto the rheometer stage equipped with a 12 mm stainless-steel parallel plate set to a […] gap height. The following program was used to monitor the storage modulus (G′) and loss modulus (G″) under various conditions as has been previously published (Li & Hartgerink, 2017). Strain sweep analysis was performed using an applied strain of 0.01-200% at a frequency of 1 rad/s. Frequency sweep analysis was performed under 1% strain at 0.1-100 rad/s. Shear recovery analysis was performed by subjecting the peptide sample to 1% strain for 20 min, then 200% for 1 min, and finally 1% for 20 min, allowing for disruption of the hydrogel and monitoring of G′ and G″ recovery.

[2] = prior studies (Leach et al., 2019); cited from earlier work
[3] = Live-dead viability of RAW 264.7 cells on MDP hydrogels; format: cell-based, mouse; conditions: mouse, RAW 264.7 cells cultured on peptide hydrogel (2-D culture); RAW macrophages on 1 wt. % hydrogel, after three days; read-out: cell survival
Procedure: (§1) Cell culture. For in vitro experiments, mouse RAW 264.7 cells (ATCC TIB-71) were grown in DMEM media supplemented with 10% Heat-Inactivated Fetal Bovine Serum (HI-FBS), L-glutamine, sodium pyruvate, and 1% penicillin-streptomycin. Cells were cultured at 37° C. with 5% CO2 and subcultured using scraping.
(§2) For 2-D culture live-dead viability studies, peptide hydrogels were pipetted into 0.4 cm^2 wells of Lab-Tek 16 well glass chamber slides (Thermo Fischer, Rochester, NY). Gels were pipetted to produce 70 μL pucks with a thickness of 1.75 mm. The gels were carefully pipetted into the bottom of each well and tapped before shear recovery to create flat gel profiles. After pipetting, the samples were allowed to shear recover for 5-10 min before adding 200 μL cell media and 10,000 RAW 264.7 cells. For each experiment time point (days 1 and 3) separate slides with duplicate gels were created. The cell media was changed every 2 days, taking care to not disturb or dislodge the gel material.
(§3) At each desired time point the following procedure was used to stain the cells for live-dead analysis. Live-dead staining solution was prepared in DPBS (Thermo Fisher Scientific, Rockford, IL) with 2 μM Calcein AM (Life Technologies), 4 μM Ethidium homodimer (Life Technologies), and 5 μg/mL Hoechst 33342 (BD Biosciences, San Jose, CA). Cell media was removed from the top of the hydrogel samples, which were then washed with PBS. Samples were then stained with 100 μL of prepared solution by incubating at 37° C. with 5% CO2 for 60 min while protected from light. After staining, the gels were removed from the glass chamber slides and placed in PBS before immediately imaging by confocal. Gels were analyzed by z-stack imaging using a Nikon A1 Confocal Microscope with a 40× water objective (405 nm blue channel laser, 488 nm green channel laser, 561 nm red channel laser). Image processing was done using NIS Elements, and Imaris Cell Counting software was used to quantify live-dead percentages.

[4] = test system: RAW 264.7 cells; assay: as above; format: cell-based, mouse; conditions: RAW macrophages on 1 wt. % hydrogel, one to three days
Procedure: as §1, §2, §3

[5] = test system: B16-F0 melanoma tumors; assay: Tumor growth in the B16-F0 melanoma model; format: in vivo, mice; conditions: monotherapy, single intratumoral injection
Procedure: Evaluation of in vivo VEGF reduction using murine B16-F0 melanoma tumor model. C57BL/6J male mice were purchased from The Jackson Laboratory. Tumor inoculation was performed when mice reached 10-14 weeks of age. All experiments were performed with approval of IACUC at Baylor College of Medicine (BCM) and followed established protocols. B16-F0 melanoma cell line was purchased from American Type Culture Collection (ATCC) and maintained according to manufacturer instructions (DMEM high-glucose with 10% fetal bovine serum and 1% penicillin/streptomycin). C57BL/6J mice were injected subcutaneously (s.c.) with 3×10^5 B16-F0 cells in a single flank. Once tumors became palpable (day 7 post-inoculation) mice were injected intratumorally (i.t.) with either vehicle buffer control Hank's Balanced Salt Solution (HBSS), free L-NIL dissolved in HBSS at 20 mM, K2-MDP hydrogel at 1 wt. % (5.6 mM peptide), or L-NIL-MDP hydrogel at 1 wt. % (5.2 mM peptide, or approximately 20 mM L-NIL functional groups). All injections were done using 100 μL total injection volume.

For `CC(=N)NCCCC[C@H](NC(=O)[C@H](CCCCNC(C)=N)NC(=O)[C@H](CC(C)C)NC(=O)[C@H](CO)NC(=O)[C@H](CC(C)C)NC(=O)[C@H](CO)NC(=O)[C@H](CC(C)C)NC(=O)[C@H](CO)NC(=O)[C@H](CC(C)C)NC(=O)[C@H](CO)NC(=O)[C@H](CC(C)C)NC(=O)[C@H](CO)NC(=O)[C@H](CC(C)C)NC(=O)[C@H](CO)NC(=O)[C@H](CCCCNC(C)=N)NC(=O)[C@H](CCCCNC(C)=N)NC(C)=O)C(N)=O` [L-NIL-MDP] (Ac-[X1][X1]SLSLSLSLSLSL[X1][X1]-NH2), the “loss modulus (G″)” value [1] is given as 20-25 Pa and ~25 Pa, the “storage modulus (G′)” value [1] is given as 260-300 Pa and ~300 Pa and the “hydrogel observable post injection” value [2] is given as 21 days. The viability at 72 h, 1 wt. % [3] was about 95%, the “cell attachment, survival and proliferation (in words)” value [4] was “highest degrees of cell attachment and proliferation” and the “tumor growth reduction (in words)” value [5] was “no favorable effect on tumor growth reduction”.
